Measurements taken from patent US11542257B2, “Arylnaphthalene compounds as vacuolar-ATPase inhibitors and the use thereof” (priority 2018, dated 2023).
Like-named read-outs stand apart in the source and are kept apart here.

Tests used:
[1] = tested on: endosomal acidification in HEK293 cells; assay: cells; format: cell-based; conditions: for IC50: read-out: HEK AO IC50
[2] = tested on: endosomal acidification in A549 cells; assay: Inhibition of cellular endosomal acidification, acridine orange (AO), A549 cells; format: cell-based
[3] = tested on: A549 cells; assay: Cytotoxicity (MTT), A549 cells; conditions: read-out: A549 CC50, 72 h, MTT
[4] = tested on: Ebolavirus (EBOV); assay: organism not typed; format: cell-based; conditions: for IC50: read-out: EBOV IC50
[5] = tested on: cytosolic pH of HEK293 cells; assay: Cytosolic pH, BCECF-AM, HEK293 cells; format: cell-based; conditions: FIG. 1B
[6] = tested on: HEK293 cells
[7] = tested on: Marburg virus (MARV); format: cell-based
[8] = target: T1, V-ATPase (Homo sapiens, UniProt P27449+Q93050); assay: Acridine orange quenching in isolated HEK293 vesicles (proton-pumping function of V-ATPase); format: biochemical
[9] = target: T1, V-ATPase; format: biochemical
[10] = tested on: endosomal pH of HEK293 cells; assay: Intracellular endosomal pH, FITC-dextran, HEK293 cells; format: cell-based; conditions: HEK293, 4 h, 1-3 μM, FIG. 1C
[11] = Cytotoxicity (MTT), A549 cells; conditions: human
[12] = in vitro; conditions: human
[13] = tested on: filoviral infection of primary human macrophages (PHM); format: cell-based, filovirus; conditions: read-out: PHM Antiviral IC50

T1 sequence (P27449 whole entry, looked up): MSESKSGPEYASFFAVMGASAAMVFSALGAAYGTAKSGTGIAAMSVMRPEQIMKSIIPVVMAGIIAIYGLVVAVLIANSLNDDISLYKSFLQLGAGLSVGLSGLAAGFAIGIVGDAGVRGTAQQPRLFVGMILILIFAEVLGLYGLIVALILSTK
T1 sequence (Q93050 whole entry, looked up): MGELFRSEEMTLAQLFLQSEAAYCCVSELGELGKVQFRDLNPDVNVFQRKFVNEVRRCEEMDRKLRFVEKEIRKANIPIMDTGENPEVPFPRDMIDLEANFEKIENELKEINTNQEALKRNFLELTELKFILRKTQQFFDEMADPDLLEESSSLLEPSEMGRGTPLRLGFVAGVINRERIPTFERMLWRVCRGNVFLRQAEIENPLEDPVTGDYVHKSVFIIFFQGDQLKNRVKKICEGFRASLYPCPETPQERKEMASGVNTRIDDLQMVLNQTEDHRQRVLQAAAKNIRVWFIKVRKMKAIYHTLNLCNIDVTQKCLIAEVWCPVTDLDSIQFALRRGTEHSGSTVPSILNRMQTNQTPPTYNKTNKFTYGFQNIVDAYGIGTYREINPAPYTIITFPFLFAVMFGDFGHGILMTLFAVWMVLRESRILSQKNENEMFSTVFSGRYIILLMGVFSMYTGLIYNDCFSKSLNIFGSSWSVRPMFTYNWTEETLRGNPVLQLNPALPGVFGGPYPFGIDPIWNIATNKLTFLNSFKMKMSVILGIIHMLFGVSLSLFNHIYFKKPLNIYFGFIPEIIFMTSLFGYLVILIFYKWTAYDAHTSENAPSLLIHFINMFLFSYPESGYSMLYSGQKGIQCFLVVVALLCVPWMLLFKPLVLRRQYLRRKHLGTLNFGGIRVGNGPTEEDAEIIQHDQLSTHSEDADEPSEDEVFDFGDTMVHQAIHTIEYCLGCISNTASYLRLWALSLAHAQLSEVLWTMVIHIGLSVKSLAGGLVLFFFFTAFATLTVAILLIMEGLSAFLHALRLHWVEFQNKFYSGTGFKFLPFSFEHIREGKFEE

Structure (SMILES) | IC50 [1] | IC50 [2] | IC50 [4] | IC50 ([1]; Homo sapiens, HEK293, 4 h) | IC50 ([4]; HeLa) | inhibition of ATP hydrolysis, in words [9] | CC50 at 72 h [11] | CC50 [12] | also measured
CO/C1=C\C(C)=C\[C@@H](C)[C@@H](O)[C@@H](C)C/C(C)=C/C=C/[C@H](OC)[C@@H]([C@@H](C)[C@@H](O)[C@H](C)[C@@]2(O)C[C@@H](O)[C@H](C)[C@@H](C(C)C)O2)OC1=O [Baf A1, bafilomycin A1, reference compound] | 40.5 ± 3.31 nM | 21.3 ± 2.55 nM | 14.9 ± 8.93 nM |  |  |  |  |  | CC50 [3]: 479 ± 266 nM; change in cytosolic pH compared to the vehicle treated control [5]: no significant change; CC50 [6]: 320 ± 42 nM
COc1cc2c(OC(C)=O)c3c(c(-c4ccc5c(c4)OCO5)c2cc1OC)C(=O)N(CCO)C3=O [Compound 1e, 9-(benzo[d][1,3]dioxol-5-yl)-2-(2-hydroxyethyl)-6,7-dimethoxy-1,3-dioxo-2,3-dihydro-1H-benzo[f]isoindol-4-yl acetate] |  |  |  | > 10000 nM | 5400 ± 2920 nM |  |  |  | effect on endosomal acidification (AO fluorescence ratio), in words [1]: did not cause a significant change in the fluorescence ratio; active in screen for inhibition of ebolavirus infection [4]: active
COc1cc2c(O)c3c(c(-c4ccc5c(c4)OCO5)c2cc1OC)C(=O)OC3 [Compound 2a, 9-(benzo[d][1,3]dioxol-5-yl)-4-hydroxy-6,7-dimethoxynaphtho[2,3-c]furan-1(3H)-one, reference compound] | 476 ± 60.1 nM | 149 ± 20.5 nM | 678 ± 161 nM |  |  | inhibited ATP hydrolysis to a similar extent | 50100 ± 15500 nM |  | IC50 [7]: 1770 ± 80 nM; times less potent than bafilomycin A1 (V-ATPase-mediated fluorescent quenching) [8]: about 7.5 times; endosomal pH after treatment [10]: ~7 pH; change in cytosolic pH compared to the vehicle treated control [5]: no significant change
COc1cc2c(OC)c3c(c(-c4ccc5c(c4)OCO5)c2cc1OC)C(=O)OC3 [Compound 2b, 9-(benzo[d][1,3]dioxol-5-yl)-4,6,7-trimethoxynaphtho[2,3-c]furan-1(3H)-one] | 265 ± 58.6 nM | 58.2 ± 8.76 nM | 171 ± 40.2 nM |  |  | inhibited ATP hydrolysis to a similar extent | > 100000 nM | 5730 ± 841 nM | 
CCOc1c2c(c(-c3ccc4c(c3)OCO4)c3cc(OC)c(OC)cc13)C(=O)OC2 [Compound 2c, 9-(benzo[d][1,3]dioxol-5-yl)-4-ethoxy-6,7-dimethoxynaphtho[2,3-c]furan-1(3H)-one] | 254 ± 49 nM | 52.4 ± 19.3 nM | 112 ± 14.7 nM |  |  | inhibited ATP hydrolysis to a similar extent | 77400 ± 11000 nM | 2380 nM | 
C#CCOc1c2c(c(-c3ccc4c(c3)OCO4)c3cc(OC)c(OC)cc13)C(=O)OC2 [Compound 2d, 9-(benzo[d][1,3]dioxol-5-yl)-6,7-dimethoxy-4-(prop-2-yn-1-yloxy)naphtho[2,3-c]furan-1(3H)-one] |  |  |  | 263 ± 46.6 nM | 175 ± 21.7 nM |  |  | 2040 nM | 
C#CCCCOc1c2c(c(-c3ccc4c(c3)OCO4)c3cc(OC)c(OC)cc13)C(=O)OC2 [Compound 2e, 9-(benzo[d][1,3]dioxol-5-yl)-6,7-dimethoxy-4-(pent-4-yn-1-yloxy)naphtho[2,3-c]furan-1(3H)-one] | 102 ± 19 nM | 84.8 ± 11.9 nM | 73.2 ± 11.9 nM |  |  | inhibited ATP hydrolysis to a similar extent | > 100000 nM |  | IC50 [7]: 402 ± 45.9 nM; IC50 [13]: 240 nM; times better activity than Bafilomycin A1 (proton pumping activity of V-ATPase) [8]: 2 times; times better activity than diphyllin (proton pumping activity of V-ATPase) [8]: 17 times
COc1cc2c(OCCCC#N)c3c(c(-c4ccc5c(c4)OCO5)c2cc1OC)C(=O)OC3 [Compound 2f, 4-((9-(benzo[d][1,3]dioxol-5-yl)-6,7-dimethoxy-1-oxo-1,3-dihydronaphtho[2,3-c]furan-4-yl)oxy)butanenitrile] |  |  |  | 98.7 ± 29.5 nM | 93.1 ± 26.8 nM |  |  | 3310 ± 740 nM | 
COc1cc2c(OCCCN3CCOCC3)c3c(c(-c4ccc5c(c4)OCO5)c2cc1OC)C(=O)OC3 [Compound 2g, 9-(benzo[d][1,3]dioxol-5-yl)-6,7-dimethoxy-4-(3-morpholinopropoxy)naphtho[2,3-c]furan-1(3H)-one] | 74.3 ± 23.9 nM | 56.1 ± 15.9 nM | 107 ± 23.7 nM |  |  | inhibited ATP hydrolysis to a similar extent | > 100000 nM |  | IC50 [7]: 135 ± 11.4 nM; IC50 [13]: 57.7 ± 8.6 nM; times better activity than diphyllin (proton pumping activity of V-ATPase) [8]: 7 times
CCOC(=O)CN1CCN(CCCOc2c3c(c(-c4ccc5c(c4)OCO5)c4cc(OC)c(OC)cc24)C(=O)OC3)CC1 [Compound 2h, ethyl 2-(4-(3-((9-(benzo[d][1,3]dioxol-5-yl)-6,7-dimethoxy-1-oxo-1,3-dihydronaphtho[2,3-c]furan-4-yl)oxy)propyl)piperazin-1-yl)acetate] | 172 ± 40.6 nM | 101 ± 13.8 nM | 132 ± 32.3 nM |  |  | inhibited ATP hydrolysis to a similar extent | > 100000 nM |  | IC50 [7]: 81.6 ± 28.7 nM; IC50 [13]: 256 nM
COc1cc2c(OCCCN3CCN(CCO)CC3)c3c(c(-c4ccc5c(c4)OCO5)c2cc1OC)C(=O)OC3 [Compound 2i, 9-(benzo[d][1,3]dioxol-5-yl)-4-(3-(4-(2-hydroxyethyl)piperazin-1-yl)propoxy)-6,7-dimethoxynaphtho[2,3-c]furan-1(3H)-one] | 104 ± 21.2 nM |  | 76.2 ± 14.6 nM |  |  |  |  |  | 
COc1cc2c(O)c3c(c(-c4ccc5c(c4)OCO5)c2cc1OC)C(=O)N(N)C3 [Compound 3a, 2-amino-9-(benzo[d][1,3]dioxol-5-yl)-4-hydroxy-6,7-dimethoxy-2,3-dihydro-1H-benzo[f]isoindol-1-one] |  |  |  | 9060 ± 893 nM | 3940 ± 604 nM |  | 28700 ± 16600 nM | 48900 ± 3610 nM | effect on endosomal acidification (AO fluorescence ratio), in words [1]: moderately inhibited acidification; IC50 ([2]; Homo sapiens): 8110 ± 670 nM
COc1cc2c(O)c3c(c(-c4ccc5c(c4)OCO5)c2cc1OC)C(=O)N(/N=C/c1ccccc1)C3 [Compound 3b, (E)-9-(benzo[d][1,3]dioxol-5-yl)-2-(benzylideneamino)-4-hydroxy-6,7-dimethoxy-2,3-dihydro-1H-benzo[f]isoindol-1-one] |  |  |  | > 10000 nM | 6630 ± 437 nM |  |  |  | 
COc1cc2c(O)c3c(c(-c4ccc5c(c4)OCO5)c2cc1OC)C(=O)N(/N=C/c1cccnc1)C3 [Compound 3c, (E)-9-(benzo[d][1,3]dioxol-5-yl)-4-hydroxy-6,7-dimethoxy-2-((pyridin-3-ylmethylene)amino)-2,3-dihydro-1H-benzo[f]isoindol-1-one] | 8710 ± 769 nM | 11600 nM | 4480 ± 467 nM |  |  |  | 50100 ± 27700 nM | 49900 ± 15900 nM | times less effective than diphyllin (AO quenching) [8]: 2 times
COc1cc2c(O)c3c(c(-c4ccc5c(c4)OCO5)c2cc1OC)C(=O)N(/N=C/c1ccc(Cl)cc1)C3 [Compound 3d, (E)-9-(benzo[d][1,3]dioxol-5-yl)-2-((4-chlorobenzylidene)amino)-4-hydroxy-6,7-dimethoxy-2,3-dihydro-1H-benzo[f]isoindol-1-one] | 9930 ± 140 nM | 8440 ± 367 nM | 1170 ± 518 nM |  |  |  | 78000 ± 26400 nM | 28400 ± 2710 nM | times less effective than diphyllin (AO quenching) [8]: 4 times
COc1cc2c(O)c3c(c(-c4ccc5c(c4)OCO5)c2cc1OC)C(=O)N(/N=C/c1ccc(C#N)cc1)C3 [Compound 3g, (E)-4-(((9-(benzo[d][1,3]dioxol-5-yl)-4-hydroxy-6,7-dimethoxy-1-oxo-1,3-dihydro-2H-benzo[f]isoindol-2-yl)imino)methyl)benzonitrile] |  |  |  | > 10000 nM | 1690 ± 233 nM |  |  |  | 
COc1cc2c(O)c3c(c(-c4ccc5c(c4)OCO5)c2cc1OC)C(=O)N(/N=C/c1c(F)c(F)c(F)c(F)c1F)C3 [Compound 3h, (E)-9-(benzo[d][1,3]dioxol-5-yl)-4-hydroxy-6,7-dimethoxy-2-(((perfluorophenyl)methylene)amino)-2,3-dihydro-1H-benzo[f]isoindol-1-one] |  |  |  | > 10000 nM | 8740 ± 2180 nM |  |  |  | 
